# Assay results reported in patent publication US20090155270A1, “CASPASE INHIBITORS, […] 3 INHIBITORS, FOR THE TREATMENT OF INFLUENZA” (priority 2003, published 2009).
# Residues, ends and D or L forms follow the SMILES beside them. *: point of attachment. Cbz = O=C(OCc1ccccc1)*; CH2F = FC*
# B1: procaspase-3 (protein, UniProt P42574 1-277, looked up)
# pro-form: MENTENSVDSKSIKNLEPKIIHGSESMDSGISLDNSYKMDYPEMGLCIIINNKNFHKSTGMTSRSGTDVDAANLRETFRNLKYEVRNKNDLTREEIVELMRDVSKEDHSKRSSFVCVLLSHGEEGIIFGTNGPVDLKKITNFFRGDRCRSLTGKPKLFIIQACRGTELDCGIETDSGVDDDMACHKIPVEADFLYAYSTAPGYYSWRNSKDGSWFIQSLCAMLKQYADKLEFMHILTRVNRKVATEFESFSFDATFHAKKQIPCIVSMLTKELYFYH
# modifications: pro-form
# Assays:
# [1] = tested on: influenza A virus strain fowl plague virus (FPV); type: cell-based
# [2] = tested on: reconstituted RNP complexes (PB2, PB1, PA, NP); type: cell-based, influenza A virus
# caspase-3 [3] = target: caspase-3 (Homo sapiens, UniProt P42574)
# [4] = tested on: influenza virus ribonucleic protein complexes (RNP's); type: cell-based, influenza A virus
# [5] = tested on: Raf/MEK/ERK signal pathway (ERK); type: cell-based, homo sapiens
# [6] = tested on: early or late viral proteins (NS1, NP, M1); type: cell-based, influenza A virus
# [7] = tested on: influenza A virus nucleoprotein (NP); type: cell-based
# caspase-3 [8] = target: T1, caspase-3 (Canis lupus familiaris, UniProt Q8MKI5); type: cell-based
# T1 construct: endogenous in cells; host or cells: MDCK cells infected with influenza A virus FPV
# T1 sequence (Q8MKI5 29-175 limits assumed): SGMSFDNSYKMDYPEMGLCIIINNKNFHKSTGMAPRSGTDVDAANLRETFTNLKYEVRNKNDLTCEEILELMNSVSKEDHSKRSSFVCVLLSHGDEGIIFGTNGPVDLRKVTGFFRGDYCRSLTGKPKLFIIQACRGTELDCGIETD
# T1 sequence (Q8MKI5 176-277 limits assumed): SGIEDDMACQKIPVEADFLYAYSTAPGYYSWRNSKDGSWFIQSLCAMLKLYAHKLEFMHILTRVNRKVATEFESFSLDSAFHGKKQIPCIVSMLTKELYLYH
# [9] = tested on: influenza A virus strain Bratislava/79 (fowl plague virus, FPV); type: cell-based
# [10] = tested on: influenza A virus strain fowl plague virus (FPV); type: cell-based; remark: listed apart in the source
# [11] = tested on: influenza A virus strain fowl plague virus (FPV); type: cell-based; remark: listed apart in the source
molecule,measurement,setting,value
N#CC(=C(/N)Sc1ccccc1N)/C(C#N)=C(\N)Sc1ccccc1N [U0126],effect on the virus multiplication (titers of descendant viruses),[1],again reduced
same,prevention of staurosporine-induced bleeding of GFP and RNP complexes out of the cell nucleus,[2],not
same,cleavage of the caspase substrate PARP,caspase-3 [3],did not lead to a modified cleavage of PARP
same,migration of the RNP's out of the cell nucleus,[4],efficiently be inhibited
same,virus-induced activity of ERK,[5],efficiently inhibited
COC(=O)CC[C@H](NC(=O)[C@H](CC(=O)OC)NC(=O)OCc1ccccc1)C(=O)N[C@H](C(=O)N[C@@H](CC(=O)OC)C(=O)CF)C(C)C [Z-DEVD-FMK],effect on the virus multiplication (titers of descendant viruses),[1],did not have any effect
same,effect on virus protein expression,[6],no significant effect
same,prevention of staurosporine-induced bleeding of NP out of the cell nucleus,[7],can be prevented
same,prevention of staurosporine-induced bleeding of GFP and RNP complexes out of the cell nucleus,[2],can be prevented
same,"caspase inhibition, measured by the cleavage of the caspase substrate PARP, versus virus titer inhibition",caspase-3 [8],precisely correlated
same,migration of the RNP's out of the cell nucleus,[4],efficiently be inhibited
same,virus-induced activity of ERK,[5],substantially identical
same,effect on virus multiplication when present in the first two hours after infection and removed thereafter,[9],no significant effects
same,inhibition of virus multiplication when added 4 hours after infection,[9],continued to effectively inhibit virus multiplication
same,reduction in the influenza virus titers,[9],approx. 60%
CC(NC(=O)[C@H](Cc1ccccc1)NC(=O)OCc1ccccc1)C(=O)CF (some centres unmarked) [Z-FA-FMK],migration of the RNP's out of the cell nucleus,[4],not
same,effect on virus multiplication,[9],did not show any effect
COC(=O)C[C@H](NC(=O)[C@H](C)NC(=O)[C@@H](NC(=O)OCc1ccccc1)C(C)C)C(=O)CF [Z-VAD-FMK] (Cbz-Val-Ala-Asp(OMe)-CH2F),inhibition of the virus multiplication,[9],same efficiency
CCC(=C/[C@H](C)C/C=C/C(C)=C/[C@@H](C)C(=O)[C@@H](C)[C@H](O)[C@@H](C)C/C(C)=C/C(=O)O)/C=C/[C@@H]1OC(=O)C=C[C@@H]1C [leptomycin B],prevention of staurosporine-induced bleeding of NP out of the cell nucleus,[7],not
CN[C@@H]1C[C@H]2O[C@@](C)([C@@H]1OC)n1c3ccccc3c3c4c(c5c6ccccc6n2c5c31)C(=O)NC4 [staurosporine],localization of the nucleoprotein after apoptosis induction,[7],distributed over the complete cell
same,localization of GFP and RNP complexes after apoptosis induction,[2],distributed over the complete cell
B1,virus multiplication in transfected cells,[10],increased virus multiplication
same,increase in the titers of descendant viruses,[11],30 fold
